Measured values: the NIST ThermoML archive (doi:10.1021/je060204g)

Conditions: 101 kPa, Liquid mixture 1, Drop weight

Cc1ccccc1 [toluene] + O
Conditions | interfacial tension [mN/m]
293.15 K | 37.1
298.15 K | 36.1
303.15 K | 35.5
308.15 K | 35.1
313.15 K | 34.7
323.15 K | 34.3
